Here are results for 36 compounds from patent US20250025443A1, “COMPOUNDS AND METHODS FOR TREATING CORONA VIRUSES” (CLEAR CREEK BIO, INC., priority 2021, published 2025).

The structures appear in SMILES notation. A value given as a limit tells only on which side of the number the result lay.

The first test deals with SARS-CoV-2 Papain-Like Protease (PLpro) (Severe acute respiratory syndrome coronavirus 2 (2019-nCoV) (SARS-CoV-2), UniProt P0DTD1). The test can be described thus: biochemical. The settings on record: PLpro enzymatic fluorescence assay; class symbols; read-out: PLpro IC50.
A word on the IC50: it is the concentration needed to halve the response being measured. In the case of `Cc1ccc(OCC(C)N)cc1C(=O)NC1(c2cccc3ncccc23)CC1` (stereo not drawn) [Compound 498, 5-(2-Aminopropoxy)-2-methyl-N-(1-(quinolin-5-yl)cyclopropyl)benzamide], the concentration for half-maximal inhibition (IC50) was under 100 nM. Same read-out and setting: the result for `CC(=O)Nc1cc(C2(NC(=O)c3cc(OCC4CCN4C)ccc3C)CC2)c2ccccc2c1` (stereo not drawn) [Compound 500, N-(1-(3-Acetamidonaphthalen-1-yl)cyclopropyl)-2-methyl-5-((1-methylazetidin-2-yl)methoxy)benzamide] reads under 100 nM; that for `Cc1ccc(OCC(C)N)cc1C(=O)NC1(c2cc(-c3ccc(Cl)s3)cc3ccccc23)CC1` (stereo not drawn) [Compound 502, 5-(2-Aminopropoxy)-N-(1-(3-(5-chlorothiophen-2-yl)naphthalen-1-yl)cyclopropyl)-2-methylbenzamide], under 100 nM; that for `C=CCc1cc(C2(NC(=O)c3cc(OCC4CCN4C)ccc3C)CC2)c2ccccc2c1` (stereo not drawn) [Compound 503, N-(1-(3-Allylnaphthalen-1-yl)cyclopropyl)-2-methyl-5-((1-methylazetidin-2-yl)methoxy)benzamide], under 100 nM.

Consider `CCCc1cc(C2(NC(=O)c3cc(OCC4CCN4C)ccc3C)CC2)c2ccccc2c1` (stereo not drawn) [Compound 504, 2-Methyl-5-((1-methylazetidin-2-yl)methoxy)-N-(1-(3-propylnaphthalen-1-yl)cyclopropyl)benzamide], for which the concentration for half-maximal inhibition (IC50) was under 100 nM. For `Cc1ccc(N2C[C@@H](C)N[C@@H](C)C2)cc1C(=O)NC1(c2cccc3ccccc23)CC1` [Compound 506, 5-((3S,5R)-3,5-Dimethylpiperazin-1-yl)-2-methyl-N-(1-(naphthalen-1-yl)cyclopropyl)benzamide], the half-maximal inhibitory concentration (IC50) was under 100 nM.

For `Cc1ccc(OCC2CCN2C)cc1C(=O)NC1(c2c3ccccc3cc3ccccc23)CC1` (stereo not drawn) [Compound 507, N-(1-(Anthracen-9-yl)cyclopropyl)-2-methyl-5-((1-methylazetidin-2-yl)methoxy)benzamide], the IC50 fell in the range of 100 to 1000 nM.

Regarding `COc1cc(C2(NC(=O)c3cc(OC[C@H]4C[C@H](F)CN4)ccc3C)CC2)c2ccccc2c1` [Compound 510, 5-(((2R,4S)-4-Fluoropyrrolidin-2-yl)methoxy)-N-(1-(3-methoxynaphthalen-1-yl)cyclopropyl)-2-methylbenzamide], the IC50 was under 100 nM.

Turning to `COc1cc(C2(NCc3cc(OCCN)ccc3C)CC2)c2cccnc2c1` [Compound 513], the half-inhibitory concentration (IC50) was under 100 nM. The same measure, in the same setting: the result for `Cc1ccc(OCC2CCN2C)cc1C(=O)NC1(c2cc(-c3ccc(Cl)s3)cc3ccccc23)CC1` (stereo not drawn) [Compound 514, N-(1-(3-(5-Chlorothiophen-2-yl)naphthalen-1-yl)cyclopropyl)-2-methyl-5-((1-methylazetidin-2-yl)methoxy)benzamide] reads under 100 nM; that for `CCc1cc(C2(NC(=O)c3cc(OCC4CCN4C)ccc3C)CC2)c2ccccc2c1` (stereo not drawn) [Compound 516, N-(1-(3-Ethylnaphthalen-1-yl)cyclopropyl)-2-methyl-5-((1-methylazetidin-2-yl)methoxy)benzamide], under 100 nM. The same measure, in the same setting: the value for `C=Cc1cc(C2(NC(=O)c3cc(OCC4CCN4C)ccc3C)CC2)c2ccccc2c1` (stereo not drawn) [Compound 517, 2-Methyl-5-((1-methylazetidin-2-yl)methoxy)-N-(1-(3-vinylnaphthalen-1-yl)cyclopropyl)benzamide] was under 100 nM; that for `Cc1ccc(OCC2CCN2C)cc1C(=O)NC1(c2cc(-c3ccc(F)cc3)cc3ccccc23)CC1` (stereo not drawn) [Compound 518, N-(1-(3-(4-Fluorophenyl)naphthalen-1-yl)cyclopropyl)-2-methyl-5-((1-methylazetidin-2-yl)methoxy)benzamide] was under 100 nM; that for `COc1cc(C2(NC(=O)c3cc(OC[C@H]4C[C@H](F)CN4C)ccc3C)CC2)c2ccccc2c1` [Compound 531, 5-(((2R,4S)-4-Fluoro-1-methylpyrrolidin-2-yl)methoxy)-N-(1-(3-methoxynaphthalen-1-yl)cyclopropyl)-2-methylbenzamide] was under 100 nM. `COc1cc(C2(NC(=O)c3cc(OC[C@@H]4C[C@@H](F)CN4C)ccc3C)CC2)c2cccnc2c1` [Compound 532, 5-(((2S,4R)-4-Fluoro-1-methylpyrrolidin-2-yl)methoxy)-N-(1-(7-methoxyquinolin-5-yl)cyclopropyl)-2-methylbenzamide]: the half-inhibitory concentration (IC50) is under 100 nM. On the same count and under the same terms, the result for `COc1cc(C2(NC(=O)c3cc(OC[C@@H](C)N)ccc3C)CC2)c2cccnc2c1` [Compound 535, (R)-5-(2-Aminopropoxy)-N-(1-(7-methoxyquinolin-5-yl)cyclopropyl)-2-methylbenzamide] reads under 100 nM; that for `COc1cc(C2(NC(=O)c3cc(OC[C@H](C)N)ccc3C)CC2)c2ccncc2c1` [Compound 536, (S)-5-(2-Aminopropoxy)-N-(1-(7-methoxyisoquinolin-5-yl)cyclopropyl)-2-methylbenzamide], under 100 nM. On the same count and under the same terms, the result for `COc1cc(C2(NC(=O)c3cc(OC[C@@H](C)N)ccc3C)CC2)c2ccncc2c1` [Compound 537, (R)-5-(2-Aminopropoxy)-N-(1-(7-methoxyisoquinolin-5-yl)cyclopropyl)-2-methylbenzamide] reads under 100 nM.

The same test, now with this note: SARS-CoV-2 PLpro enzymatic fluorescence assay; read-out: PLpro IC50.
Turning to `Cc1cc(C2(NC(=O)c3cc(OCC(C)N)ccc3C)CC2)c2cccnc2c1` (stereo not drawn) [Compound 497, 5-(2-Aminopropoxy)-2-methyl-N-(1-(7-methylquinolin-5-yl)cyclopropyl)benzamide], the IC50 is under 100 nM. Consider `CNCCOc1ccc(C)c(C(=O)NC2(c3cccc4ccccc34)CN(C)C2)c1` [Compound 499, 2-Methyl-N-(1-methyl-3-(naphthalen-1-yl)azetidin-3-yl)-5-(2-(methylamino)ethoxy)benzamide], for which the IC50 was over 5000 nM. Consider `Cc1cc(C2(NC(=O)c3cc(OCC4CCN4C)ccc3C)CC2)c2ccccc2c1` (stereo not drawn) [Compound 501, 2-Methyl-5-((1-methylazetidin-2-yl)methoxy)-N-(1-(3-methylnaphthalen-1-yl)cyclopropyl)benzamide], for which the IC50 is under 100 nM. In the case of `Cc1ccc(N2CCN(CCO)CC2)cc1C(=O)NC1(c2cccc3ccccc23)CC1` [Compound 505, 5-(4-(2-Hydroxyethyl)piperazin-1-yl)-2-methyl-N-(1-(naphthalen-1-yl)cyclopropyl)benzamide], the half-inhibitory concentration (IC50) was under 100 nM.

For the compound `C=C(C)c1cc(C2(NC(=O)c3cc(OCC4CCN4C)ccc3C)CC2)c2ccccc2c1` (stereo not drawn) [Compound 508, 2-Methyl-5-((1-methylazetidin-2-yl)methoxy)-N-(1-(3-(prop-1-en-2-yl)naphthalen-1-yl)cyclopropyl)benzamide], the IC50 was under 100 nM. The same measure, in the same setting: the result for `Cc1ccc(OCC2CCN2C)cc1C(=O)NC1(c2cccc3cnc(O)cc23)CC1` (stereo not drawn) [Compound 509, N-(1-(3-Hydroxyisoquinolin-5-yl)cyclopropyl)-2-methyl-5-((1-methylazetidin-2-yl)methoxy)benzamide] reads 100 to 1000 nM. Same read-out and setting: the value for `COc1cc(C2(NC(=O)c3cc(OC[C@@H]4CCN4)ccc3C)CC2)c2cccnc2c1` [Compound 511, (S)-5-(Azetidin-2-ylmethoxy)-N-(1-(7-methoxyquinolin-5-yl)cyclopropyl)-2-methylbenzamide] was under 100 nM; that for `Cc1ccc(OCC2CCN2C)cc1C(=O)NC1(c2cc(C(N)=O)cc3ccccc23)CC1` (stereo not drawn) [Compound 520, 4-(1-(2-Methyl-5-((1-methylazetidin-2-yl)methoxy)benzamido)cyclopropyl)-2-naphthamide] was under 100 nM. Consider `Cc1ccc(OCC2CCN2C)cc1C(=O)NC1(c2cc(C(C)C)cc3ccccc23)CC1` (stereo not drawn) [Compound 521, N-(1-(3-Isopropylnaphthalen-1-yl)cyclopropyl)-2-methyl-5-((1-methylazetidin-2-yl)methoxy)benzamide], for which the half-inhibitory concentration (IC50) was under 100 nM. The same measure, in the same setting: the result for `CC(c1cccc2cnccc12)N1CCC(C(=O)NCc2cccc(F)c2)CC1` (stereo not drawn) [Compound 522, N-(3-Fluorobenzyl)-1-(1-(isoquinolin-5-yl)ethyl)piperidine-4-carboxamide] reads over 5000 nM; that for `COc1cc(C(C)N2CCC(C(=O)NCc3cccc(F)c3)CC2)c2ccccc2c1` (stereo not drawn) [Compound 524, N-(3-Fluorobenzyl)-1-(1-(3-methoxynaphthalen-1-yl)ethyl)piperidine-4-carboxamide], 100 to 1000 nM. On the same count and under the same terms, the value for `CNCCOc1ccc(C)c(C(=O)NC2(c3cc(OC)cc4ncccc34)CC2)c1` [Compound 526, N-(1-(7-Methoxyquinolin-5-yl)cyclopropyl)-2-methyl-5-(2-(methylamino)ethoxy)benzamide] was under 100 nM; that for `COc1cc(C2(NC(=O)c3cc(OC[C@@H]4CCN4C)ccc3C)CC2)c2cccnc2c1` [Compound 527, (S)-N-(1-(7-Methoxyquinolin-5-yl)cyclopropyl)-2-methyl-5-((1-methylazetidin-2-yl)methoxy)benzamide] was under 100 nM; that for `COc1cc(C2(NC(=O)c3cc(OC[C@@H]4CCCN4C)ccc3C)CC2)c2cccnc2c1` [Compound 528, (S)-N-(1-(7-Methoxyquinolin-5-yl)cyclopropyl)-2-methyl-5-((1-methylpyrrolidin-2-yl)methoxy)benzamide] was under 100 nM.

Turning to `Cc1ccc(OCC2CCN2C)cc1C(=O)NC1(c2cccc3nc(F)ccc23)CC1` (stereo not drawn) [Compound 529, N-(1-(2-Fluoroquinolin-5-yl)cyclopropyl)-2-methyl-5-((1-methylazetidin-2-yl)methoxy)benzamide], the IC50 was under 100 nM. Still for that read-out and setting: the value for `COc1cc(C2(NC(=O)c3cc(OC[C@H](C)N)ccc3C)CC2)c2cccnc2c1` [Compound 530, (S)-5-(2-Aminopropoxy)-N-(1-(7-methoxyquinolin-5-yl)cyclopropyl)-2-methylbenzamide] was under 100 nM; that for `Cc1ccc(OC2CNC(C)(C)C2)cc1C(=O)NC1(c2cccc3ccccc23)CC1` (stereo not drawn) [Compound 533, 5-((5,5-Dimethylpyrrolidin-3-yl)oxy)-2-methyl-N-(1-(naphthalen-1-yl)cyclopropyl)benzamide] was under 100 nM. The same measure, in the same setting: the result for `Cc1ccc(OCC2CC(C)(C)N2)cc1C(=O)NC1(c2cccc3ccccc23)CC1` (stereo not drawn) [Compound 534, 5-((4,4-Dimethylazetidin-2-yl)methoxy)-2-methyl-N-(1-(naphthalen-1-yl)cyclopropyl)benzamide] reads under 100 nM.
